Reference: ChEMBL document CHEMBL5620344, “Discovery of novel 5-(2-hydroxyphenyl)-2-phthalide-3(3H)-pyrazolones as balanced multifunctional agents against Alzheimer's disease” (Eur J Med Chem, 2023)
The source made the active and inactive calls. No cut-off for these calls is given here.

Legend:
[1] = target: Amyloid-beta precursor protein (Homo sapiens) (UniProt P05067); test: Disaggregation of self-induced amyloid beta (1 to 42) (unknown origin) preformed fibrils assessed as reduction in long fibrils formed incubated for 24 hrs by transmission electron microscopy
BV-2 [2] = test: Anti-neuroinflammatory activity against LPS-stimulated mouse BV-2 cells assessed as inhibition of TNF-alpha release at 2.5 uM by ELISA; type: functional
BV-2 [3] = test: Cytotoxicity against mouse BV-2 cells assessed as effect on cell viability at 2.5 to 25 uM by MTT assay; type: toxicity, cell-based; conditions: bv-2, 25 µM, dose 2.5-25 µM
[4] = target: Amyloid-beta precursor protein (Homo sapiens) (UniProt P05067); test: Disaggregation of self-induced amyloid beta (1 to 42) (unknown origin) preformed fibrils at 25 uM by ThT fluorescence assay
[5] = target: Amyloid-beta precursor protein (Homo sapiens) (UniProt P05067); test: Disaggregation of Cu2+-induced amyloid beta (1 to 42) (unknown origin) preformed fibrils assessed as decrease in size of aggregates incubated for 24 hrs by transmission electron microcopy
[6] = Metal chelating activity assessed as compound-Zn2+ complex formation by measuring red shift of absorption peak with declined absorption at 37.5 uM in presence of ZnCl2 by UV-Vis spectrometry
Mus musculus [7] = test: Antialzheimer activity against amyloid beta (1-42)-induced alzheimer's disease mouse model assessed as decrease in amyloid beta (1 to 42) level in hippocampus at 32 mg/kg and measured on day 6 by ELISA; type: functional, organism-based; conditions: time 6.0 day
PC-12 [8] = test: Cytotoxicity against rat PC12 cells assessed as effect on cell viability at 2.5 to 25 uM by MTT assay; type: toxicity, cell-based; conditions: pc-12, 25 µM, dose 2.5-25 µM
[9] = AUC (0 to t) in BALB/c mouse brain at 30 mg/kg, ig; type: ADME, organism-based; conditions: in vivo, po
BV-2 [10] = test: Anti-neuroinflammatory activity against LPS-stimulated mouse BV-2 cells assessed as inhibition of TNF-alpha release at 10 uM by ELISA; type: functional
PC-12 [11] = test: Neuroprotective activity against H2O2-induced cytotoxicity in rat PC12 cells assessed as cell viability at 2.5 uM by MTT assay (reference value: 54.9%); type: functional; conditions: read-out: Activity
[12] = Half life in BALB/c mouse plasma at 30 mg/kg, ig; type: ADME, organism-based; conditions: po
[13] = Half life in BALB/c mouse brain at 30 mg/kg, ig; type: ADME, organism-based; conditions: po
BV-2 [14] = test: Anti-neuroinflammatory activity against LPS-stimulated mouse BV-2 cells assessed as inhibition of NO release at 10 uM incubated for 24 hrs by Griess reagent based assay; type: functional
[15] = Metal chelating activity assessed as compound-Fe2+ complex formation by measuring increase in absorbance at 37.5 uM in presence of FeSO4 by UV-vis spectrometry
[16] = target: T1, Amine oxidase [flavin-containing] A (Homo sapiens, UniProt P21397); test: Inhibition of human recombinant MAO-A
T1 sequence (P21397 whole entry): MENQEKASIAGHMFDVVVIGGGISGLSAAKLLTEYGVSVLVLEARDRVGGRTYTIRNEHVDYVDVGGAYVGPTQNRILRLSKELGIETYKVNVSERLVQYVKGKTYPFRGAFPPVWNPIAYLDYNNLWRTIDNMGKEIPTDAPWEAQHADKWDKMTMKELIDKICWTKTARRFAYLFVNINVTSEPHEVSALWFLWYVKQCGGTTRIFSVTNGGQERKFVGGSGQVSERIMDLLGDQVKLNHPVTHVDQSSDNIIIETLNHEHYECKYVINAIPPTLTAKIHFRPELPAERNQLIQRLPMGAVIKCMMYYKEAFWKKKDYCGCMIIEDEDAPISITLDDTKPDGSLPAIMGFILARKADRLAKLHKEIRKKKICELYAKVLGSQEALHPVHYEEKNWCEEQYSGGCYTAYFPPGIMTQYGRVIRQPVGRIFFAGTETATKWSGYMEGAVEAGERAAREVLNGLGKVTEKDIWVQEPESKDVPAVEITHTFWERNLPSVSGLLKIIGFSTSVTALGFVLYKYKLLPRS

[17] = target: Amyloid-beta precursor protein (Homo sapiens) (UniProt P05067); test: Disaggregation of Cu2+-induced amyloid beta (1 to 42) (unknown origin) preformed fibrils assessed as degradation of crude fibrils incubated for 24 hrs by transmission electron microcopy
BV-2 [18] = test: Antioxidant activity against LPS-stimulated mouse BV-2 cells assessed as inhibition of ROS generation by measuring decrease in fluorescence intensity at 2.5 to 10 uM by DCFH-DA staining based fluorescence microscopy; type: functional, cell-based; conditions: dose 2.5-10 µM
Mus musculus [19] = test: Anti-oxidative stress against amyloid beta (1-42)-induced alzheimer's disease mouse model assessed as decrease in MDA content in hippocampus at 8 to 32 mg/kg and measured on day 6; type: functional, organism-based; conditions: dose 8-32 mg/kg, time 6.0 day
[20] = target: Amyloid-beta precursor protein (Homo sapiens) (UniProt P05067); test: Disaggregation of Cu2+-induced amyloid beta (1 to 42) (unknown origin) preformed fibrils at 25 uM by ThT fluorescence assay
Mus musculus [21] = test: Antialzheimer activity against amyloid beta (1-42)-induced alzheimer's disease mouse model assessed as decrease in cognitive impairment by measuring increase in time spent in target quadrant in spatial probe trial at 8 to 32 mg/kg and measured on day 6 by Morris water maze test; type: functional, organism-based; conditions: dose 8-32 mg/kg, time 6.0 day
[22] = Cmax in BALB/c mouse brain at 30 mg/kg, ig; type: ADME, organism-based; conditions: po
[23] = AUC (0 to t) in BALB/c mouse plasma at 30 mg/kg, ig; type: ADME, organism-based; conditions: po
BV-2 [24] = test: Anti-neuroinflammatory activity against LPS-stimulated mouse BV-2 cells assessed as inhibition of TNF-alpha release at 0.5 uM by ELISA; type: functional

Sequence of Amyloid-beta precursor protein (Homo sapiens) (P05067 whole entry): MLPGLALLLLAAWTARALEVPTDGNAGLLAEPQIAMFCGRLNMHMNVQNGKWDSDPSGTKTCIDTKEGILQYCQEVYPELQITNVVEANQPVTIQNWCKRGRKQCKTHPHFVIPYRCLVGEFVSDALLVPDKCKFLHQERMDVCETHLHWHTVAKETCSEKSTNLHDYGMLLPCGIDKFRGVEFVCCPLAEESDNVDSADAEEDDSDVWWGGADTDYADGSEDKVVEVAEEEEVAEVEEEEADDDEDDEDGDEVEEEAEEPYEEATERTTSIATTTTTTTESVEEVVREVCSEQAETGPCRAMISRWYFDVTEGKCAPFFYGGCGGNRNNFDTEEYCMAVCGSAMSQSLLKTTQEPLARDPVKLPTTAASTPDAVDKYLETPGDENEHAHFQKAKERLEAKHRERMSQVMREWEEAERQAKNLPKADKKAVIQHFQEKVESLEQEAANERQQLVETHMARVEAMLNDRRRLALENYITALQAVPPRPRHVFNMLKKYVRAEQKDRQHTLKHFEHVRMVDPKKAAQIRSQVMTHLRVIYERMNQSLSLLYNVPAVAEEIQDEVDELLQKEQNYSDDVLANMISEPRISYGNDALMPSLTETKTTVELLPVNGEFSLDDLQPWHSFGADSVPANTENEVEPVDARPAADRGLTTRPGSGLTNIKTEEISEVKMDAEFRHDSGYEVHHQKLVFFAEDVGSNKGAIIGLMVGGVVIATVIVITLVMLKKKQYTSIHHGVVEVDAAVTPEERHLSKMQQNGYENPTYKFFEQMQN

## CCCCCCCC1OC(=O)c2cc(N3N=C(c4cc(Cl)ccc4O)CC3=O)ccc21 (centres undefined)
[1]
  Activity: Active
BV-2 [2]
  inhibition at 2.5 µM: 51.6%
BV-2 [3]
  Activity: Non-Toxic
[4]
  Activity: 81.9%
[5]
  Activity: Active
[6]
  Activity: Active
Mus musculus [7]
  Activity: Active
PC-12 [8]
  Activity: Non-Toxic
[9]
  AUCt: 2032.5 ng·h/g
BV-2 [10]
  inhibition at 10 µM: 71.6%
PC-12 [11]
  viability at 2.5 µM: 73.4%
[12]
  half-life: 1.15 h
[13]
  half-life: 2.07 h
BV-2 [14]
  inhibition at 10 µM: 76.3%
[15]
  Activity: Active
[16]
  IC50: > 10 µM
[17]
  Activity: Active
BV-2 [18]
  Activity: Active
Mus musculus [19]
  Activity: Dose-Dependent Effect
[20]
  Activity: 82.4%
Mus musculus [21]
  Activity: Active
[22]
  Cmax: 923 ng/g
[23]
  AUC(0-t): 2940 ng·h/mL
BV-2 [24]
  inhibition at 0.5 µM: 22.7%
